Reference: PMC12767106, “In Situ Assembly of Transformable Monopeptide on Activated Neutrophils Attenuates NETs‐Induced Hepatocellular Carcinoma Metastasis by Disrupting NE Nuclear Translocation” (Advanced Science, 2025)

Tested on: activated neutrophils
Experiment: NETs formation (MPO-DNA ELISA, CitH3 immunofluorescence and Western blot)
Format: cell-based, mouse
Conditions: PMA-activated neutrophils, 50 µM, 4 h, CitH3 staining and Western blot
Experimental: Submitted to Advanced Science
Neutrophil Elastase Activity Assay
To evaluate the distribution of active NE on the surface and inside of neutrophils, we used a kit (AkrivisBio’s Neutrophil Elastase Activity Assay, MA-0156), seeded neutrophils in confocal microscopy dishes, and then treated them with NFTP-NPs (50 µM, medium: DMSO = 99:1, v/v), FTP-NPs (50 µM, medium: DMSO = 99:1, v/v), PMA+NFTP-NPs (50 µM, medium: DMSO = 99:1, v/v), and PMA+FTP-NPs (50 µM, medium: DMSO = 99:1, v/v) at 37°C. Because the Neutrophil elastase in the kit cleaves a concrete fluorogenic substrate which releases AFC, providing intense fluorescence, 50 μl of MeOSucc-AAPV-AFC mix (Assay Buffer: MeOSucc-AAPV-AFC = 48:2) was added at 4 h, and after incubation for 1 h, the samples were examined by CLSM (LSM980, Zeiss, Germany).
Quantitative analysis of NE activity […]
DMSO = 99:1, v/v) for 4 h to obtain the solution.35,36 Quantitative analysis was carried out by a NETosis Assay Kit (Cayman Chemical, USA).
Quantitative induction analysis of NETs in vitro […]
According to the manufacturer's instructions, MPO -DNA levels in cultured supernatant were analyzed by an ELISA kit (MEIMIAN, China).38 Briefly, samples were added to each well and incubated with anti -MPO and anti-DNA antibodies for 2 h at room temperature. […] The OD value w as then measured by a microplate […]

Substance: PpIX-GFFVLK-EAIPMSIPPEVK [FTP-NPs]
- formation of NETs: effectively inhibit the formation of NETs
